In paper PMC9784969, “SARS-CoV-2 Inhibitors Identified by Phenotypic Analysis of a Collection of Viral RNA-Binding Molecules” (Pharmaceuticals, 2022):

Assays:
SARS-CoV-2 USA-WA1/2020 = experiment: microbe, parasite or virus in culture; type: cell-based; conditions: Severe acute respiratory syndrome coronavirus 2, Vero C1008, 48 h, Vero E6 cells, MOI 0.025, two days; read-out: SARS-CoV-2 EC50
ATTL RNA = experiment: ligand-based 1H NMR (1D, CPMG, wLOGSY); type: binding, SARS-CoV-2
SCoV2 RNA elements = experiment: ligand-based 1H NMR (1D, CPMG, wLOGSY), six RNA elements compared; type: binding, SARS-CoV-2; conditions: CSP, LB, CPMG and wLOGSY perturbations; 300 µM compound
Excerpt: We first used ligand-based ^1H NMR experiments to analyze the interaction of the selected compounds with each of the six RNA elements specified above, including one-dimensional, Carr–Purcell–Meiboom–Gill (CPMG) and waterLOGSY (wLOGSY) experiments. These assays detect changes in the ^1H signals of the ligand upon RNA association (Figure 4A), and have been successfully used to evaluate small-molecule binding to RNA motifs, including elements of the SCoV2 genome.
Each ligand (at a concentration of 300 μM) was mixed with a smaller quantity of RNA in an aqueous solution containing 25 mM potassium phosphate (pH 6.2), 150 mM KCl, 3 mM MgCl2, and 10% D2O. RNA–ligand molar ratios of 1:50 and 1:100 were explored (with 6 and 3 μM RNA, respectively). […] The water signal was suppressed from one-dimensional experiments with a watergate sequence. The CPMG experiments were acquired with 100, 200, 300, and 400 ms relaxation delays before acquisition, and water suppression was achieved by presaturation. wLOGSY experiments employed a selective Gaussian 180° pulse at the water frequency and an NOE mixing time of 1.5 s and suppressed the water signal by excitation sculpting. All spectra were acquired in the absence and presence of RNA.
All ligand signals were individually analyzed. For clomiphene citrate, the signals corresponding to cis and trans forms were identified by comparing the spectrum of clomiphene citrate with those of the individual stereoisomers. In CPMG experiments, the binding of the compounds to the different RNA sequences was quantified as 100 minus the percentage of ligand signal area in the +RNA CPMG spectrum relative to the corresponding signal area in the -RNA CPMG spectrum. In wLOGSY experiments, binding was quantified with the LOGSY factor, or % of ligand signal in the difference spectrum between the +RNA and –RNA wLOGSY spectra, relative to the corresponding signal in the one-dimensional -RNA reference spectrum. In one-dimensional experiments, line broadening (LB) was quantified as explained for CPMG spectra.

SARS-CoV-2 = type: cell-based; conditions: 48 h post-infection
[1] = system: subdomain IIa of the internal ribosome entry site (IRES) RNA of HCV; set-up: method as in earlier work; conditions: ref 6 (Table S1 list: Martín-Villamil et al. 2022); cited from earlier work
in vitro = conditions: human, uninfected 293T-ACE2 cells
Vero E6 cells = conditions: read-out: SARS-CoV-2 CC50, uninfected, MTT
5_SL2+3 RNA = experiment: RNA-based 1H NMR (TOCSY) titration; type: binding, SARS-CoV-2; conditions: RNA:ligand up to 1:4
HIV-1 = conditions: ref 3 (Table S1 list: Simba-Lahuasi et al., Unpublished results); cited from earlier work
[2] = system: subdomain IIB of the rev recognition element (RRE) of the HIV-1 genomic RNA; conditions: ref 3 (Table S1 list: Simba-Lahuasi et al., Unpublished results); cited from earlier work
[3] = average of aliphatic protons, RNA:ligand 1:100 (clomiphene) or 1:50 (trim, qz2)
[4] = average of aromatic protons, RNA:ligand 1:100 (clomiphene) or 1:50 (trim, qz2)

CC(C)CCN1CCC(CNc2nc3ccccc3c(=O)[nH]2)CC1 [qz2]
EC50 (SARS-CoV-2 USA-WA1/2020): 7.52 µM | CPMG variation (ATTL RNA; [3]): 1.57% | LB (ATTL RNA; [3]): 4.09% | LOGSY factor (ATTL RNA; [3]): 4.38% | CPMG variation (ATTL RNA; [4]): 10.0% | LB (ATTL RNA; [4]): 3.39% | LOGSY factor (ATTL RNA; [4]): 9.98% | CPMG variation (ATTL RNA; qz2 peak A, RNA:ligand 1:50): 7.14% | LB (ATTL RNA; qz2 peak A, RNA:ligand 1:50): 6.48% | LOGSY factor (ATTL RNA; qz2 peak A, RNA:ligand 1:50): 2.39% | CPMG variation (ATTL RNA; qz2 peak C/D, RNA:ligand 1:50): 3.98% | LB (ATTL RNA; qz2 peak C/D, RNA:ligand 1:50): 2.52% | LOGSY factor (ATTL RNA; qz2 peak C/D, RNA:ligand 1:50): 6.82% | CPMG variation (ATTL RNA; qz2 peak E/B, RNA:ligand 1:50): -8.59% | LB (ATTL RNA; qz2 peak E/B, RNA:ligand 1:50): 7.56% | LOGSY factor (ATTL RNA; qz2 peak E/B, RNA:ligand 1:50): 2.78% | CPMG variation (ATTL RNA; qz2 peak F, RNA:ligand 1:50): 7.26% | LB (ATTL RNA; qz2 peak F, RNA:ligand 1:50): -1.84% | LOGSY factor (ATTL RNA; qz2 peak F, RNA:ligand 1:50): 3.39% | CPMG variation (ATTL RNA; qz2 peak G, RNA:ligand 1:50): 2.72% | LB (ATTL RNA; qz2 peak G, RNA:ligand 1:50): 8.16% | LOGSY factor (ATTL RNA; qz2 peak G, RNA:ligand 1:50): 6.53% | CPMG variation (ATTL RNA; qz2 peak I, RNA:ligand 1:50): 9.63% | LB (ATTL RNA; qz2 peak I, RNA:ligand 1:50): 3.05% | LOGSY factor (ATTL RNA; qz2 peak I, RNA:ligand 1:50): 10.3% | CPMG variation (ATTL RNA; qz2 peak J, RNA:ligand 1:50): 9.03% | LB (ATTL RNA; qz2 peak J, RNA:ligand 1:50): 12.1% | LOGSY factor (ATTL RNA; qz2 peak J, RNA:ligand 1:50): 5.22% | CPMG variation (ATTL RNA; qz2 peak K, RNA:ligand 1:50): 10.5% | LB (ATTL RNA; qz2 peak K, RNA:ligand 1:50): -5.00% | LOGSY factor (ATTL RNA; qz2 peak K, RNA:ligand 1:50): 14.4% | RNA binding preference (SCoV2 RNA elements): bound to the ORF7b element only | viral titers in supernatants (TCID50) (SARS-CoV-2): below the limit of detection | Previous target RNA binding [1]: yes | CC50 at 2 days (in vitro): > 6.6 µM

NCCCc1cn(C(c2ccccc2)(c2ccccc2)c2ccccc2)cn1 [trim]
CC50 (Vero E6 cells): > 89.8 µM | TOCSY perturbations (5_SL2+3 RNA): larger variations than clomiphene or qz2 | EC50 (SARS-CoV-2 USA-WA1/2020): 3.5 µM | CPMG variation (ATTL RNA; [3]): 11.7% | LB (ATTL RNA; [3]): 10.0% | LOGSY factor (ATTL RNA; [3]): 5.15% | CPMG variation (ATTL RNA; [4]): -12.7% | LB (ATTL RNA; [4]): 9.31% | LOGSY factor (ATTL RNA; [4]): 4.35% | CPMG variation (ATTL RNA; trim peak A, RNA:ligand 1:50): 8.20% | LB (ATTL RNA; trim peak A, RNA:ligand 1:50): 12.4% | LOGSY factor (ATTL RNA; trim peak A, RNA:ligand 1:50): 7.80% | CPMG variation (ATTL RNA; trim peak B, RNA:ligand 1:50): 17.6% | LB (ATTL RNA; trim peak B, RNA:ligand 1:50): 8.81% | LOGSY factor (ATTL RNA; trim peak B, RNA:ligand 1:50): 2.50% | CPMG variation (ATTL RNA; trim peak C, RNA:ligand 1:50): -36.9% | LB (ATTL RNA; trim peak C, RNA:ligand 1:50): 1.54% | LOGSY factor (ATTL RNA; trim peak C, RNA:ligand 1:50): 4.56% | CPMG variation (ATTL RNA; trim peak D, RNA:ligand 1:50): 8.68% | LB (ATTL RNA; trim peak D, RNA:ligand 1:50): 7.54% | LOGSY factor (ATTL RNA; trim peak D, RNA:ligand 1:50): 4.51% | CPMG variation (ATTL RNA; trim peak E, RNA:ligand 1:50): -32.0% | LB (ATTL RNA; trim peak E, RNA:ligand 1:50): 23.3% | LOGSY factor (ATTL RNA; trim peak E, RNA:ligand 1:50): 3.98% | Previous target virus activity (HIV-1): yes | Previous target RNA binding [2]: yes | RNA binding preference (SCoV2 RNA elements): bound with enhanced affinity to the 5_SL2+3 and 3_S2m molecules | viral titers in supernatants (TCID50) (SARS-CoV-2): below the limit of detection | CC50 at 2 days (in vitro): 23.5 µM
